Experimental data taken from patent publication US8383139B2 (Bayer CropScience AG, priority 2008, dated 2013).

Columns and labels:
[1] = tested on: Alternaria solani; assay: Alternaria test (tomato)/protective; type: in vivo; details: 72 h, 100 ppm active substance, protective, evaluation 3 days after inoculation, read-out: degree of effectiveness
Protocol: (§1) • Solvents: 24.5 parts by weight of acetone • 24.5 parts by weight of dimethylacetamide • Emulsifier: 1 part by weight of alkylaryl polyglycol ether (polyoxyethylene (16) tristearylphenyl ether)
(§2) To prepare a suitable active substance composition, 1 part by weight of active substance is mixed with the given amounts of solvents and emulsifier and the concentrate is diluted to the desired concentration using water.
For the testing of protective effectiveness, young plants are sprayed with the active substance composition in the application rate given. After the spray coating has been dried on, the plants are inoculated with an aqueous suspension of spores of Alternaria solani. The plants are then placed in an incubation chamber at approximately 20° C. and 100% relative humidity.
Evaluation is carried out 3 days after the inoculation. In this connection, 0% means a degree of effectiveness corresponding to that of the control, while a degree of effectiveness of 100% means that no infestation is observed.

[2] = log P by HPLC on reversed-phase columns (C 18), EEC Directive 79/831 Annex V.A8; type: physicochemical; details: reversed-phase C18 HPLC column, pH 2.3, [a] HPLC, acid region pH 2.3, 0.1% aqueous phosphoric acid and acetonitrile; read-out: log p
[3] = tested on: Uromyces appendiculatus; assay: Uromyces test (beans)/protective; type: in vivo; details: 240 h, 100 ppm active substance, protective, evaluation 10 days after inoculation, read-out: degree of effectiveness
Protocol: as §1, §2
For the testing of protective effectiveness, young plants are sprayed with the active substance composition in the application rate given. After the spray coating has been dried on, the plants are inoculated with an aqueous suspension of the spores of the bean rust pathogen Uromyces appendiculatus and then remain in an incubation chamber at approximately 20° C. and 100% relative humidity for 1 day.
The plants are then placed in a greenhouse at approximately 21° C. and a relative humidity of approximately 90%.
Evaluation is carried out 10 days after the inoculation. In this connection, 0% means a degree of effectiveness corresponding to that of the control, while a degree of effectiveness of 100% means that no infestation is observed.

[4] = tested on: Sphaerotheca fuliginea; assay: Sphaerotheca test (cucumber)/protective; type: in vivo; details: Podosphaera fuliginea, 168 h, 500 ppm active substance, protective, evaluation 7 days after inoculation, read-out: degree of effectiveness
Protocol: • Solvents: 49 parts by weight of N,N-dimethylformamide • Emulsifier: 1 part by weight of alkylaryl polyglycol ether (polyoxyethylene (16) tristearylphenyl ether) To prepare a suitable active substance composition, 1 part by weight of active substance is mixed with the given amounts of solvents and emulsifier and the concentrate is diluted to the desired concentration using water. For the testing of protective effectiveness, young cucumber plants are sprayed with the active substance composition in the application rate given. One day after the treatment, the plants are inoculated with a suspension of spores of Sphaerotheca fuliginea. Subsequently, the plants are placed in a greenhouse at 70% relative humidity and at a temperature of 23° C. Evaluation is carried out 7 days after the inoculation. In this connection, 0% means a degree of effectiveness corresponding to that of the control, while a degree of effectiveness of 100% means that no infestation is observed.

[5] = tested on: Puccinia triticina; assay: Puccinia triticina test (wheat)/protective; type: in vivo; details: 192 h, 500 ppm active substance, protective, evaluation 8 days after inoculation, read-out: degree of effectiveness
Protocol: • Solvent: 50 parts by weight of N,N-dimethylacetamide • Emulsifier: 1 part by weight of alkylaryl polyglycol ether (polyoxyethylene (16) tristearylphenyl ether) To prepare a suitable active substance composition, 1 part by weight of active substance is mixed with the given amounts of solvent and emulsifier and the concentrate is diluted to the desired concentration using water. For the testing of protective effectiveness, young plants are sprayed with the active substance composition in the application rate given. After the spray coating has been dried on, the plants are sprayed with spores with a suspension of spores of Puccinia triticina. The plants remain in an incubation chamber at 20° C. and 100% relative humidity for 48 hours. The plants are placed in a greenhouse at a temperature of approximately 20° C. and a relative humidity of approximately 80%. Evaluation is carried out 8 days after the inoculation. In this connection, 0% means a degree of effectiveness corresponding to that of the control, while a degree of effectiveness of 100% means that no infestation is observed.

[6] = tested on: Septoria tritici; assay: Septoria tritici test (wheat)/protective; type: in vivo; details: Zymoseptoria tritici, 504 h, 500 ppm active substance, protective, evaluation 21 days after inoculation, read-out: degree of effectiveness
Protocol: • Solvent: 50 parts by weight of N,N-dimethylacetamide • Emulsifier: 1 part by weight of alkylaryl polyglycol ether (polyoxyethylene (16) tristearylphenyl ether) To prepare a suitable active substance composition, 1 part by weight of active substance is mixed with the given amounts of solvent and emulsifier and the concentrate is diluted to the desired concentration using water. For the testing of protective effectiveness, young plants are sprayed with the active substance composition at the application rate given. After the spray coating has dried on, the plants are sprayed with a suspension of spores of Septoria tritici. The plants remain in an incubation chamber at 20° C. and 100% relative humidity for 48 hours. The plants are afterwards placed under a transparent hood at 15° C. and 100% relative humidity for a further 60 hours. The plants are placed in a greenhouse at a temperature of approximately 15° C. and a relative humidity of 80%. Evaluation is carried out 21 days after the inoculation. In this connection, 0% means a degree of effectiveness corresponding to that of the control, while a degree of effectiveness of 100% means that no infestation is observed.

[7] = tested on: Phakopsora pachyrhizi; assay: Phakopsora test (soybean)/protective; type: in vivo; details: 264 h, 500 ppm active substance, protective, evaluation 11 days after inoculation, read-out: degree of effectiveness
Protocol: • Solvent: 28.5 parts by weight of acetone • Emulsifier: 1.5 parts by weight of polyoxyethylene alkylphenyl ether (polyoxy-ethylene (16) tristearylphenyl ether)
To prepare a suitable active substance composition, 1 part by weight of active substance is mixed with the given amounts of solvent and emulsifier and the concentrate is diluted to the desired concentration using water.
For the testing of protective effectiveness, young plants are sprayed with the active substance composition at the application rate given. One day after the spraying, the plants are sprayed with an aqueous suspension of spores of Phakopsora pachyrhizi. The plants remain in a greenhouse at 20° C. and 80% relative humidity.
Evaluation is carried out 11 days after the inoculation. In this connection, 0% means a degree of effectiveness corresponding to that of the control, while a degree of effectiveness of 100% means that no infestation is observed.

| Compound | chromatographic logP [2] | pest or weed control at 100 ppm [1] [%] | pest or weed control at 100 ppm [3] [%] | pest or weed control at 500 ppm [4] [%] | pest or weed control at 500 ppm [5] [%] | pest or weed control at 500 ppm [6] [%] | pest or weed control at 500 ppm [7] [%] |
| --- | --- | --- | --- | --- | --- | --- | --- |
| CCN(C)C=Nc1cc(C)c(Oc2nc(C(C)c3ccccc3)ns2)cc1C (stereo not drawn) [Example 5, N′-(2,5-dimethyl-4-{[3-(1-phenylethyl)-1,2,4-thiadiazol-5-yl]oxy}phenyl)-N-ethyl-N-methylimidoformamide] | 1.92 | ≥ 70 | ≥ 70 | ≥ 70 | ≥ 70 | – | ≥ 80 |
| CCN(C)C=Nc1cc(Cl)c(Oc2nc(Cc3ccc(Cl)cc3)ns2)cc1C [Example 3, N′-(5-chloro-4-{[3-(4-chlorobenzyl)-1,2,4-thiadiazol-5-yl]oxy}-2-methylphenyl)-N-ethyl-N-methylimidoformamide] | – | ≥ 70 | ≥ 70 | ≥ 70 | ≥ 70 | ≥ 70 | ≥ 80 |
| CCN(C)C=Nc1cc(C)c(Oc2nc(Cc3ccc(Cl)cc3)ns2)cc1C [Example 1, N′-(4-{[3-(4-chlorobenzyl)-1,2,4-thiadiazol-5-yl]oxy}-2,5-dimethylphenyl)-N-ethyl-N-methylimidoformamide] | – | ≥ 70 | ≥ 70 | ≥ 70 | ≥ 70 | ≥ 70 | ≥ 80 |
| Cc1cc(Oc2nc(C(C)(C)c3ccc(Cl)cc3)ns2)c(C)cc1N=CN1CCCCC1 [Example 26, 4-({3-[2-(4-chlorophenyl)propan-2-yl]-1,2,4-thiadiazol-5-yl}oxy)-2,5-dimethyl-N-(piperidin-1-ylmethylidene)aniline] | 2.76 | ≥ 70 | ≥ 70 | ≥ 70 | ≥ 70 | ≥ 70 | – |
| Cc1cc(Oc2nc(Cc3ccc(Br)cc3)ns2)c(C)cc1N=CN(C)C(C)C [Example 32, N′-(4-{[3-(4-bromobenzyl)-1,2,4-thiadiazol-5-yl]oxy}-2,5-dimethylphenyl)-N-methyl-N-(propan-2-yl)imidoformamide] | – | ≥ 70 | ≥ 70 | ≥ 70 | ≥ 70 | ≥ 70 | ≥ 80 |
| CCC(c1ccccc1)c1nsc(Oc2cc(C)c(N=CN3CCCCC3)cc2C)n1 (stereo not drawn) [Example 7, 2,5-dimethyl-4-{[3-(1-phenylpropyl)-1,2,4-thiadiazol-5-yl]oxy}-N-(piperidin-1-ylmethylidene)aniline] | 2.21 | ≥ 70 | ≥ 70 | ≥ 70 | ≥ 70 | ≥ 70 | – |

The next lines start with results.

| chromatographic logP [2] | Compound | pest or weed control at 100 ppm [1] [%] | pest or weed control at 100 ppm [3] [%] | pest or weed control at 500 ppm [4] [%] | pest or weed control at 500 ppm [5] [%] | pest or weed control at 500 ppm [6] [%] | pest or weed control at 500 ppm [7] [%] |
| --- | --- | --- | --- | --- | --- | --- | --- |
| 2.09 | Cc1cc(Oc2nc(Cc3ccc(Cl)cc3)ns2)c(C)cc1N=CN1CCCCC1 [Example 2, 4-{[3-(4-chlorobenzyl)-1,2,4-thiadiazol-5-yl]oxy}-2,5-dimethyl-N-(piperidin-1-ylmethylidene)aniline] | ≥ 70 | ≥ 70 | ≥ 70 | ≥ 70 | ≥ 70 | ≥ 80 |
| 2.39 | CCN(C)C=Nc1cc(Cl)c(Oc2nc(C(C)c3ccc(Cl)cc3)ns2)cc1C (stereo not drawn) [Example 20, N′-[5-chloro-4-({3-[1-(4-chlorophenyl)ethyl]-1,2,4-thiadiazol-5-yl}oxy)-2-methylphenyl]-N-ethyl-N-methylimidoformamide] | – | ≥ 70 | ≥ 70 | ≥ 70 | – | ≥ 80 |
| 2.05 | CCN(C)C=Nc1cc(C)c(Oc2nc(Cc3c(Cl)cccc3Cl)ns2)cc1C [Example 15, N′-(4-{[3-(2,6-dichlorobenzyl)-1,2,4-thiadiazol-5-yl]oxy}-2,5-dimethylphenyl)-N-ethyl-N-methylimidoformamide] | ≥ 70 | ≥ 70 | ≥ 70 | ≥ 70 | ≥ 70 | – |
| 2.03 | Cc1cc(Oc2nc(Cc3ccc(Cl)cc3)ns2)c(C)cc1N=CN(C)C(C)C [Example 9, N′-(4-{[3-(4-chlorobenzyl)-1,2,4-thiadiazol-5-yl]oxy}-2,5-dimethylphenyl)-N-methyl-N-(propan-2-yl)imidoformamide] | ≥ 70 | ≥ 70 | ≥ 70 | ≥ 70 | ≥ 70 | – |
| 2.35 | Cc1cc(Oc2nc(Cc3ccc(Cl)c(Cl)c3)ns2)c(C)cc1N=CN(C)C(C)C [Example 47, N′-(4-{[3-(3,4-dichlorobenzyl)-1,2,4-thiadiazol-5-yl]oxy}-2,5-dimethylphenyl)-N-methyl-N-(propan-2-yl)imidoformamide] | ≥ 70 | ≥ 70 | ≥ 70 | ≥ 70 | ≥ 70 | – |
| 1.71 | CCN(C)C=Nc1cc(C)c(Oc2nc(Cc3ccccc3)ns2)cc1C [Example 23, N′-{4-[(3-benzyl-1,2,4-thiadiazol-5-yl)oxy]-2,5-dimethylphenyl}-N-ethyl-N-methylimidoformamide] | ≥ 70 | ≥ 70 | ≥ 70 | ≥ 70 | ≥ 70 | – |
